From patent US11214594B2, “Antimicrobial peptide having synergistic antibacterial effect with antibiotics on multidrug resistant bacteria, and use thereof” (priority 2016, dated 2022)
≈ marks a conversion by molar mass, not a printed value. Where a SMILES comes first, the peptide text is derived from it.

Tests used:
[1] = system: E. coli; assay: microbe, parasite or virus in culture; type: cell-based, Escherichia coli; settings: 16 h
Procedure, shortened: (§1)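 Broth microdilution in MH medium: bacterial strains diluted to 2×10^6 CFU were mixed with equal volumes of peptide serially diluted twofold in MH medium.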

[2] = system: MDREC 1229; assay: microbe, parasite or virus in culture; type: cell-based, Escherichia coli
Procedure, shortened: as §1

[3] = system: MDRST 8009; type: cell-based, Salmonella typhimurium; settings: agent alone
Procedure, shortened: as §1

[4] = system: E. coli; assay: MIC of antibiotic during combined treatment with antimicrobial peptide; type: cell-based, Escherichia coli; settings: for Antibiotic MIC, Erythromycin / Antibiotic MIC, Linezolid / Antibiotic MIC, Vancomycin: E. coli
Procedure, shortened: (§2)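 Using MH broth, we determined combination MICs by titrating the antibiotic into wells and then repeating under the reverse dilution scheme.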

[5] = system: A. baumannii; assay: as above; type: cell-based, Acinetobacter baumannii; settings: for Antibiotic MIC, Erythromycin / Antibiotic MIC, Linezolid / Antibiotic MIC, Vancomycin: A. baumannii
Procedure, shortened: as §2

[6] = combined with peptide at 1 μg/ml
[7] = combined with peptide at 2 μg/ml
[8] = combined with peptide at 4 μg/ml
[9] = combined with peptide at 6 μg/ml
[10] = combined with peptide at 8 μg/ml
[11] = combined with peptide at 16 μg/ml
[12] = combined with peptide at 32 μg/ml
[13] = combined with peptide at 64 μg/ml

CC[C@H](C)[C@H](NC(=O)[C@H](CCCCN)NC(=O)[C@H](Cc1c[nH]c2ccccc12)NC(=O)[C@@H](N)CCCNC(=N)N)C(=O)N[C@@H](Cc1ccccc1)C(=O)N[C@@H](CCCCN)C(=O)N[C@@H](CCCCN)C(=O)N[C@H](C(=O)N1CCC[C@H]1C(=O)N[C@@H](CCCCN)C(=O)N[C@@H](Cc1ccccc1)C(=O)N[C@@H](CC(C)C)C(=O)N[C@@H](Cc1c[nH]cn1)C(=O)N[C@@H](CCC(=O)O)C(=O)N[C@@H](C)C(=O)N[C@@H](CCCCN)C(=O)N[C@@H](CCCCN)C(=O)N[C@@H](Cc1ccccc1)C(N)=O)[C@@H](C)CC [PapMA-11, RWK IFK KIP KFL HEA KKF-NH2] (H-RWKIFKKIPKFLHEAKKF-NH2; N-terminus assumed)
Minimal inhibitory concentration MIC [1]: 64 µg/mL (≈ 27.3 µM) | Minimal inhibitory concentration MIC [2]: 64 µg/mL (≈ 27.3 µM) | Peptide MIC, peptide alone [2]: 64 µg/mL | Minimal inhibitory concentration MIC [3]: 64 µg/mL (≈ 27.3 µM) | Synergistic effect of antibacterial activity with existing antibiotics compared with PapMA-1 ([4]; E. coli and MDREC1229): level similar to that of the PapMA-1 peptide | Antibiotic MIC, Erythromycin ([4]; erythromycin combined with peptide at 1 μg/ml): 64 µg/mL | Antibiotic MIC, Erythromycin ([4]; erythromycin combined with peptide at 2 μg/ml): 64 µg/mL | Antibiotic MIC, Erythromycin ([4]; erythromycin combined with peptide at 4 μg/ml): 16 µg/mL | Antibiotic MIC, Erythromycin ([4]; erythromycin combined with peptide at 6 μg/ml): 4 µg/mL | Antibiotic MIC, Erythromycin ([4]; erythromycin combined with peptide at 8 μg/ml): 1 µg/mL | Antibiotic MIC, Erythromycin ([4]; erythromycin combined with peptide at 16 μg/ml): 0.25 µg/mL | Antibiotic MIC, Erythromycin ([4]; erythromycin combined with peptide at 32 μg/ml): 0.125 µg/mL | Antibiotic MIC, Erythromycin ([4]; erythromycin combined with peptide at 64 μg/ml): 0 µg/mL | Antibiotic MIC, Linezolid ([4]; linezolid combined with peptide at 1 μg/ml): >128 µg/mL | Antibiotic MIC, Linezolid ([4]; linezolid combined with peptide at 2 μg/ml): 128 µg/mL | Antibiotic MIC, Linezolid ([4]; linezolid combined with peptide at 4 μg/ml): 128 µg/mL | Antibiotic MIC, Linezolid ([4]; linezolid combined with peptide at 6 μg/ml): 32 µg/mL | Antibiotic MIC, Linezolid ([4]; linezolid combined with peptide at 8 μg/ml): 32 µg/mL | Antibiotic MIC, Linezolid ([4]; linezolid combined with peptide at 16 μg/ml): 16 µg/mL | Antibiotic MIC, Linezolid ([4]; linezolid combined with peptide at 32 μg/ml): 8 µg/mL | Antibiotic MIC, Linezolid ([4]; linezolid combined with peptide at 64 μg/ml): 0 µg/mL | Antibiotic MIC, Vancomycin ([4]; vancomycin combined with peptide at 1 μg/ml): >128 µg/mL | Antibiotic MIC, Vancomycin ([4]; vancomycin combined with peptide at 2 μg/ml): >128 µg/mL | Antibiotic MIC, Vancomycin ([4]; vancomycin combined with peptide at 4 μg/ml): >128 µg/mL | Antibiotic MIC, Vancomycin ([4]; vancomycin combined with peptide at 6 μg/ml): 32 µg/mL | Antibiotic MIC, Vancomycin ([4]; vancomycin combined with peptide at 8 μg/ml): 16 µg/mL | Antibiotic MIC, Vancomycin ([4]; vancomycin combined with peptide at 16 μg/ml): 8 µg/mL | Antibiotic MIC, Vancomycin ([4]; vancomycin combined with peptide at 32 μg/ml): 4 µg/mL | Antibiotic MIC, Vancomycin ([4]; vancomycin combined with peptide at 64 μg/ml): 0 µg/mL | Synergistic effect of antibacterial activity with existing antibiotics compared with PapMA-1 ([5]; A. baumannii and MDRAB 12035): level similar to that of PapMA-1 peptide | Antibiotic MIC, Erythromycin [5, 6]: 32 µg/mL | Antibiotic MIC, Linezolid [5, 6]: 128 µg/mL | Antibiotic MIC, Vancomycin [5, 6]: >128 µg/mL | Antibiotic MIC, Erythromycin [5, 7]: 16 µg/mL | Antibiotic MIC, Linezolid [5, 7]: 128 µg/mL | Antibiotic MIC, Vancomycin [5, 7]: 128 µg/mL | Antibiotic MIC, Erythromycin [5, 8]: 4 µg/mL | Antibiotic MIC, Linezolid [5, 8]: 64 µg/mL | Antibiotic MIC, Vancomycin [5, 8]: 32 µg/mL | Antibiotic MIC, Erythromycin [5, 9]: 1 µg/mL | Antibiotic MIC, Linezolid [5, 9]: 32 µg/mL | Antibiotic MIC, Vancomycin [5, 9]: 16 µg/mL | Antibiotic MIC, Erythromycin [5, 10]: 0.5 µg/mL | Antibiotic MIC, Linezolid [5, 10]: 16 µg/mL | Antibiotic MIC, Vancomycin [5, 10]: 8 µg/mL | Antibiotic MIC, Erythromycin [5, 11]: 0.25 µg/mL | Antibiotic MIC, Linezolid [5, 11]: 8 µg/mL | Antibiotic MIC, Vancomycin [5, 11]: 4 µg/mL | Antibiotic MIC, Erythromycin [5, 12]: 0.125 µg/mL | Antibiotic MIC, Linezolid [5, 12]: 2 µg/mL | Antibiotic MIC, Vancomycin [5, 12]: 1 µg/mL | Antibiotic MIC, Erythromycin [5, 13]: 0 µg/mL | Antibiotic MIC, Linezolid [5, 13]: 0 µg/mL | Antibiotic MIC, Vancomycin [5, 13]: 0 µg/mL
